Entries after “also recorded” stand apart in the source; their conditions may differ.
Key:
[1] = system: MOLT4 cells; assay: Global quantitative mass spectrometry proteomics; format: cell-based, human; details: 250 nM, 5 h
Procedure: Molt4 cells were treated with 250 nM of compounds BSJ-05-017 or BSJ-03-096 (singlicate) or DMSO control (biological triplicate) for 5 hours. Cells were harvested by centrifugation and prepared for mass spectrometry as described previously (28). Data were collected as reported (28). LC-MS data were analyzed using Proteome Discoverer 2.4 (Thermo Fisher Scientific), as previously described (28). Reporter ion intensities were normalized and scaled using in-house scripts in the R framework (63). Statistical analysis was carried out using the limma package within the R framework (64).

[2] = system: MCF-7 parental cells; assay: Cell viability assay (Resazurin); format: cell-based, human; details: day 7
Procedure: (§1) Cell viability was measured by Resazurin (R&D Systems, Minneapolis, MN, USA) as described previously (51). Briefly, 1,500 cells were seeded in a 96-well plate and allowed to recover overnight. Cells were treated with drugs at day 0. Resazurin was added to the cells 4 hours prior to the measurements on day 3, day 5 and day 7. Fluorescent intensity was measured using a microplate reader (SpectraMax M5, Molecular Devices, Sunnyvale, CA, USA). IC50 was calculated by GraphPad Prism 7.0 using a sigmoidal regression model.

[3] = system: MCF-7 CDK6-high cells (FAT1 loss); assay: Cell viability assay (Resazurin); format: cell-based, human; details: day 7
Procedure: as §1

[4] = system: CDK6-high cells; assay: Senescence Green flow cytometry assay; format: cell-based, human; details: 8 days; BSJ-05-017 500 nM, abemaciclib 100 nM, palbociclib 500 nM
Procedure: Senescence analysis. […] Cells were harvested using trypsin/EDTA, then stained with the CellEvent Senescence Green Flow Cytometry Assay Kit (Invitrogen) according to the manufacturer's instructions. Briefly, cells were fixed with 2% paraformaldehyde for 15 min at room temperature and stained with the CellEvent Senescence Green Probe for 2 hours at 37° C. without CO2. After incubation, cells were washed with PBS 3 times and resuspended in FACS buffer (PBS with 2% FBS) for analysis on BD Biosciences LSR Fortessa using a 488 nm laser and 530 nm/30 filter (BD Biosciences). Data analysis was performed with FCS Express 7 (De Novo Software).

[5] = target: T1, CDK4 (Homo sapiens, UniProt P11802); assay: Immunoblotting of CDK4 degradation in cells; format: cell-based
T1 construct: CDK4 and CDK6 were immunoprecipitated from isogenic drug sensitive (MCF7 parental cells with low CDK6); endogenous in cells; host or cells: MCF-7 parental and MCF-7 FAT1 CRISPR knockout (CDK6-high) cells
Procedure: (§2) Cell lysates were collected in RIPA buffer (Thermo Fisher Scientific) supplemented with protease and phosphatase inhibitors (Pierce). Protein concentration was quantified by using the BCA kit (Fisher Scientific). […] of protein lysates were loaded onto 4-12% SDS-PAGE gels (Invitrogen) for electrophoresis and transferred onto nitrocellular membranes. Blots were blocked with Intercept™ (TBS) Blocking Buffer (LI-COR Bioscience #927-60001) and incubated with primary antibody at 4° C. overnight. Secondary antibodies conjugated with fluorescence (LI-COR Bioscience #926-68071 and #926-32210) were incubated for 1 h at room temperature and blots were scanned by Odyssey Clx Imaging System from LI-COR Bioscience.

[6] = system: ~900 cell lines; assay: PRISM cell line screening; format: cell-based; details: 8 pt. dose, 5 days
Procedure: Cell Lines. The current PRISM cell set consists of 931 cell lines representing more than 45 lineages including both adherent and suspension/hematopoietic cell lines. These cell lines largely overlap with and reflect the diversity of the Cancer Cell Line Encyclopedia (CCLE) cell lines (see https://portals.broadinstitute.org/ccle). Cell lines were grown in RPMI 10% FBS without phenol red for adherent lines and RPMI 20% FBS without phenol red for suspension lines. Parental cell lines were stably infected with a unique 24-nucleotide DNA barcode via lentiviral transduction and blasticidin selection. After selection, barcoded cell lines were expanded and QCed (mycoplasma contamination test, a SNP test for confirming cell line identity, and barcode ID confirmation). Passing barcoded lines were then pooled (20-25 cell lines per pool) based on doubling time and frozen in assay-ready vials.
PRISM Screening. […] These assay ready plates were then seeded with the thawed cell line pools. […]
Barcode Amplification and Detection. Each cell line's unique barcode is located at the end of the blasticidin resistance gene and gets expressed as mRNA. […] Finally, Luminex beads that recognize the specific barcode sequences in the cell set were hybridized to the PCR products and then detected using a Luminex scanner which reports signal as a median fluorescent intensity (MFI).

[7] = system: shPTEN (PTEN loss) xenografts; assay: Efficacy study, cell-derived xenograft; format: in vivo, NSG mice; details: BSJ-05-017 50 mg/kg i.p., BSJ-03-096 50 mg/kg p.o., 25-35 days
Procedure: (§3) Efficacy study. NOD.Cg-Prkdc Il2rg<tm1Wjl>/SzJ (NSG) mice were obtained from the Jackson Laboratory (Stock #: 005557). Each mouse was injected with MCF7 parental, CDK6-ovexpressing or PTEN loss cells subcutaneously 1 week after the implantation of estradiol pellets (25 mg). […] Tumor volumes were recorded every 3-4 days. Mice were sacrificed if tumors reached 1000 mm^3 or at the end of the experiment. Tumors were collected and processed as described above.

[8] = system: MCF7 parental cell-derived xenografts; assay: Efficacy study, cell-derived xenograft; format: in vivo, NSG mice; details: ribociclib 25 mg/kg p.o., BSJ-05-017 50 mg/kg i.p., BSJ-03-096 50 mg/kg p.o., 25-35 days
Procedure: as §3

[9] = system: CDK6-overexpressing xenografts; assay: Efficacy study, cell-derived xenograft; format: in vivo, NSG mice; details: BSJ-05-017 50 mg/kg i.p., BSJ-03-096 50 mg/kg p.o., 25-35 days
Procedure: as §3

[10] = system: phosphorylation of Rb; assay: Immunoblotting of Rb phosphorylation in cells; format: cell-based, human; details: FAT1 loss / CDK6-high CDK4/6i-resistant MCF7 cells
Procedure: as §2

T1 sequence (P11802 whole entry): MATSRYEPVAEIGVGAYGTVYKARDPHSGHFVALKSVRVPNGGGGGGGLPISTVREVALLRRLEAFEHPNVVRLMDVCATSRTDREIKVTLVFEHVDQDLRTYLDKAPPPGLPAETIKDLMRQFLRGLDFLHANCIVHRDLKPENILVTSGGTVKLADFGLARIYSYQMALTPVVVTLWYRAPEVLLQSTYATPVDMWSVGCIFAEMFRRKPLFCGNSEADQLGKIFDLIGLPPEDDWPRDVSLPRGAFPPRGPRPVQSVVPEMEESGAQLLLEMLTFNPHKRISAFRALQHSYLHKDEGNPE
T1 sequence (P24385 whole entry partner): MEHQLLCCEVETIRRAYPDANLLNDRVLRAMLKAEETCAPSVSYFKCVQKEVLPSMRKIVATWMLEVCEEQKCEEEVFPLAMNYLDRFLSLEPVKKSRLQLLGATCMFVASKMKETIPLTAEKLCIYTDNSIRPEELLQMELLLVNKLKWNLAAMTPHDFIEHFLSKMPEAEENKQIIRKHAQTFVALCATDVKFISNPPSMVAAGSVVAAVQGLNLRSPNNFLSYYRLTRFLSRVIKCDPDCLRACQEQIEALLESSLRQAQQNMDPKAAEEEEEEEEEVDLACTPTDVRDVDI

degradation of CDK4 ([5]; MCF7 cells with overexpression of CDK6): effectively degrade CDK4 and CDK6
Compound: CC(=O)c1c(C)c2cnc(Nc3ccc(N4CCN(CCCCC(=O)N[C@H](C(=O)N5C[C@H](O)C[C@H]5C(=O)N[C@@H](C)c5ccc(-c6scnc6C)cc5)C(C)(C)C)CC4)cn3)nc2n(C2CCCC2)c1=O [BSJ-05-017, (2S,4R)-1-((S)-2-(5-(4-(6-((6-acetyl-8-cyclopentyl-5-methyl-7-oxo-7,8-dihydropyrido[2,3-d]pyrimidin-2-yl)amino)pyridin-3-yl)piperazin-1-yl)pentanamido)-3,3-dimethylbutanoyl)-4-hydroxy-N—((S)-1-(4-(4-methylthiazol-5-yl)phenyl)ethyl)pyrrolidine-2-carboxamide]
selectivity in global proteomics [1]: highly selective for CDK4 and CDK6
inhibition of cell growth [2]: equal potency; also recorded: equipotent in suppressing proliferation
inhibition of cell growth [3]: equal potency; also recorded: equipotent in suppressing proliferation
senescence-marker positive cells [4]: significantly higher number of cells into senescence compared with abemaciclib or palbociclib
degradation of CDK4 ([5]; FAT1 loss / CDK6-high CDK4/6i-resistant MCF7 cells, 24 h treatment): most significant degradation of both CDK4 and CDK6; also recorded: high potency in degrading CDK4 and CDK6
inhibition of cell growth across cell lines (AUC of cell viability) [6]: cells of other cancer types are also sensitive
durable tumor inhibition (percent) [7]: ~47.4%
tumor response [8]: sensitive
durable tumor inhibition (percent) [9]: −64.9%
inhibition of phosphorylation of Rb (and downstream E2F1/cyclin A2) [10]: effective inhibition of the phosphorylation of Rb
